Assay results as given in US12545639B2, “3-substituted phenylamidine compounds, preparation and use thereof” (PI INDUSTRIES LTD., priority 2019, dated 2026).

Assays:
Phakopsora pachyrhizi = Phakopsora pachyrhizi test in soybean, preventive, in vivo on plants; conditions: in Glycine max, read-out: Efficacy (% control), disease severity compared to the untreated check
Alternaria solani = Alternaria solani (early blight of tomato/potato) in vitro test, radial growth on potato dextrose agar; assay type: cell-based; conditions: 168 h, 300 ppm in potato dextrose agar, 25° C., 60% relative humidity, seven days, read-out: control compared to the untreated check (radial growth)
[1] = system: Septoria lycopersici/Corynespora cassicola (CORYCA); experiment: Septoria lycopersici/Corynespora cassicola (CORYCA) (leaf spot of tomato) in vitro test, radial growth on potato dextrose agar; assay type: cell-based; conditions: 168 h, 300 ppm in potato dextrose agar, 25° C., 70% relative humidity, seven days, read-out: control compared to the untreated check (radial growth)
Pyricularia oryzae = experiment: microbe, parasite or virus in culture; assay type: cell-based; conditions: 168 h, read-out: control compared to the untreated check (radial growth)
Rhizoctonia solani = Rhizoctonia solani (rice sheath blight/potato black scurf) in vitro test, radial growth on potato dextrose agar; assay type: cell-based; conditions: 168 h, 300 ppm in potato dextrose agar, 25° C., 60% relative humidity, seven days, read-out: control compared to the untreated check (radial growth)
Botrytis cinerea = Botrytis cinerea (gray mold) in vitro test, radial growth on potato dextrose agar; assay type: cell-based; conditions: 168 h, 300 ppm in potato dextrose agar, 22° C., 90% relative humidity, seven days, read-out: control compared to the untreated check (radial growth)

CCN(C)C=Nc1cc(F)cc(Cc2cc(F)cc(OC)c2)c1C [Compound 237, N-ethyl-N′-(5-fluoro-3-(3-fluoro-5-methoxybenzyl)-2-methylphenyl)-N-methylformimidamide]
≥ 70%: pest or weed control at 500 ppm (Phakopsora pachyrhizi) | inhibition of growth at 300 ppm (Alternaria solani) | inhibition of growth at 300 ppm [1] | inhibition of growth at 300 ppm (Pyricularia oryzae) | inhibition of growth at 300 ppm (Rhizoctonia solani) | inhibition of growth at 300 ppm (Botrytis cinerea)

CCN(C)C=Nc1cc(Cl)cc(Nc2ccccc2OC(F)(F)F)c1C [Compound 301, N′-(5-chloro-2-methyl-3-((2-(trifluoromethoxy)phenyl)amino)phenyl)-N-ethyl-N-methylformimidamide]
≥ 70%: pest or weed control at 500 ppm (Phakopsora pachyrhizi) | inhibition of growth at 300 ppm (Alternaria solani) | inhibition of growth at 300 ppm [1] | inhibition of growth at 300 ppm (Pyricularia oryzae) | inhibition of growth at 300 ppm (Rhizoctonia solani) | inhibition of growth at 300 ppm (Botrytis cinerea)

CCN(C)C=Nc1cc(F)cc(Cc2cccc(F)c2)c1C [Compound 147, N-ethyl-N′-(5-fluoro-3-(3-fluorobenzyl)-2-methylphenyl)-N-methylformimidamide]
≥ 70%: pest or weed control at 500 ppm (Phakopsora pachyrhizi) | inhibition of growth at 300 ppm (Alternaria solani) | inhibition of growth at 300 ppm [1] | inhibition of growth at 300 ppm (Pyricularia oryzae) | inhibition of growth at 300 ppm (Rhizoctonia solani) | inhibition of growth at 300 ppm (Botrytis cinerea)

CCN(C)C=Nc1cc(F)cc(Cc2cccc([N+](=O)[O-])c2)c1C [Compound 259, N-ethyl-N′-(5-fluoro-2-methyl-3-(3-nitrobenzyl)phenyl)-N-methylformimidamide]
≥ 70%: pest or weed control at 500 ppm (Phakopsora pachyrhizi) | inhibition of growth at 300 ppm (Alternaria solani) | inhibition of growth at 300 ppm [1] | inhibition of growth at 300 ppm (Pyricularia oryzae) | inhibition of growth at 300 ppm (Rhizoctonia solani) | inhibition of growth at 300 ppm (Botrytis cinerea)

CCN(C)C=Nc1cc(Cl)cc(N(C)c2ccccc2C)c1C [Compound 191, N′-(5-chloro-2-methyl-3-(methyl(o-tolyl)amino)phenyl)-N-ethyl-N-methylformimidamide]
≥ 70%: pest or weed control at 500 ppm (Phakopsora pachyrhizi) | inhibition of growth at 300 ppm (Alternaria solani) | inhibition of growth at 300 ppm [1] | inhibition of growth at 300 ppm (Pyricularia oryzae) | inhibition of growth at 300 ppm (Rhizoctonia solani) | inhibition of growth at 300 ppm (Botrytis cinerea)

CCN(C)C=Nc1cc(C)cc(Cc2ccccc2)c1Cl [Compound 70, N′-(3-benzyl-2-chloro-5-methylphenyl)-N-ethyl-N-methylformimidamide]
≥ 70%: pest or weed control at 500 ppm (Phakopsora pachyrhizi) | inhibition of growth at 300 ppm (Alternaria solani) | inhibition of growth at 300 ppm [1] | inhibition of growth at 300 ppm (Pyricularia oryzae) | inhibition of growth at 300 ppm (Rhizoctonia solani) | inhibition of growth at 300 ppm (Botrytis cinerea)

CCN(C)C=Nc1cc(F)cc(N(C)c2cc(C)ccc2Cl)c1C [Compound 117, N′-(3-((2-chloro-5-methylphenyl)(methyl)amino)-5-fluoro-2-methylphenyl)-N-ethyl-N-methylformimidamide]
≥ 70%: pest or weed control at 500 ppm (Phakopsora pachyrhizi) | inhibition of growth at 300 ppm (Alternaria solani) | inhibition of growth at 300 ppm [1] | inhibition of growth at 300 ppm (Pyricularia oryzae) | inhibition of growth at 300 ppm (Botrytis cinerea)

CCN(C)C=Nc1cc(C#N)cc(Cc2cccc(F)c2)c1C [Compound 297, N′-(5-cyano-3-(3-fluorobenzyl)-2-methylphenyl)-N-ethyl-N-methylformimidamide]
≥ 70%: pest or weed control at 500 ppm (Phakopsora pachyrhizi) | inhibition of growth at 300 ppm (Alternaria solani) | inhibition of growth at 300 ppm [1] | inhibition of growth at 300 ppm (Pyricularia oryzae) | inhibition of growth at 300 ppm (Botrytis cinerea)

CCN(C)C=Nc1cc(F)cc(Cc2ccccc2Br)c1C [Compound 151, N′-(3-(2-bromobenzyl)-5-fluoro-2-methylphenyl)-N-ethyl-N-methylformimidamide]
≥ 70%: pest or weed control at 500 ppm (Phakopsora pachyrhizi) | inhibition of growth at 300 ppm (Alternaria solani) | inhibition of growth at 300 ppm [1] | inhibition of growth at 300 ppm (Pyricularia oryzae) | inhibition of growth at 300 ppm (Rhizoctonia solani) | inhibition of growth at 300 ppm (Botrytis cinerea)

CCN(C)C=Nc1cc(F)cc(Cc2cccc(C)c2)c1C [Compound 146, N-ethyl-N′-(5-fluoro-2-methyl-3-(3-methylbenzyl)phenyl)-N-methylformimidamide]
≥ 70%: pest or weed control at 500 ppm (Phakopsora pachyrhizi) | inhibition of growth at 300 ppm (Alternaria solani) | inhibition of growth at 300 ppm [1] | inhibition of growth at 300 ppm (Pyricularia oryzae) | inhibition of growth at 300 ppm (Rhizoctonia solani) | inhibition of growth at 300 ppm (Botrytis cinerea)

CCN(C)C=Nc1cc(F)cc(Cc2ccccc2C)c1C [Compound 148, N-ethyl-N′-(5-fluoro-2-methyl-3-(2-methylbenzyl)phenyl)-N-methylformimidamide]
≥ 70%: pest or weed control at 500 ppm (Phakopsora pachyrhizi) | inhibition of growth at 300 ppm (Alternaria solani) | inhibition of growth at 300 ppm [1] | inhibition of growth at 300 ppm (Pyricularia oryzae) | inhibition of growth at 300 ppm (Rhizoctonia solani) | inhibition of growth at 300 ppm (Botrytis cinerea)

CCN(C)C=Nc1cc(F)cc(Cc2ccc(Cl)c(F)c2)c1C [Compound 206, N′-(3-(4-chloro-3-fluorobenzyl)-5-fluoro-2-methylphenyl)-N-ethyl-N-methylformimidamide]
≥ 70%: pest or weed control at 500 ppm (Phakopsora pachyrhizi) | inhibition of growth at 300 ppm (Alternaria solani) | inhibition of growth at 300 ppm [1] | inhibition of growth at 300 ppm (Pyricularia oryzae) | inhibition of growth at 300 ppm (Rhizoctonia solani) | inhibition of growth at 300 ppm (Botrytis cinerea)

CCN(C)C=Nc1cc(Cl)cc(N(C)c2ccccc2)c1C [Compound 159, N′-(5-chloro-2-methyl-3-(methyl(phenyl)amino)phenyl)-N-ethyl-N-methylformimidamide]
≥ 70%: pest or weed control at 500 ppm (Phakopsora pachyrhizi) | inhibition of growth at 300 ppm (Alternaria solani) | inhibition of growth at 300 ppm [1] | inhibition of growth at 300 ppm (Pyricularia oryzae) | inhibition of growth at 300 ppm (Botrytis cinerea)

CCN(C)C=Nc1cc(F)cc(Cc2cccc(Br)c2)c1C [Compound 205, N′-(3-(3-bromobenzyl)-5-fluoro-2-methylphenyl)-N-ethyl-N-methylformimidamide]
≥ 70%: pest or weed control at 500 ppm (Phakopsora pachyrhizi) | inhibition of growth at 300 ppm (Alternaria solani) | inhibition of growth at 300 ppm [1] | inhibition of growth at 300 ppm (Pyricularia oryzae) | inhibition of growth at 300 ppm (Rhizoctonia solani) | inhibition of growth at 300 ppm (Botrytis cinerea)

CCN(C)C=Nc1cc(F)cc(N(C)c2c(C)cccc2F)c1C [Compound 145, N-ethyl-N′-(5-fluoro-3-((2-fluoro-6-methylphenyl)(methyl)amino)-2-methylphenyl)-N-methylformimidamide]
≥ 70%: pest or weed control at 500 ppm (Phakopsora pachyrhizi) | inhibition of growth at 300 ppm (Alternaria solani) | inhibition of growth at 300 ppm [1] | inhibition of growth at 300 ppm (Pyricularia oryzae) | inhibition of growth at 300 ppm (Rhizoctonia solani) | inhibition of growth at 300 ppm (Botrytis cinerea)

CCN(C)C=Nc1cc(F)cc(N(C)c2cc(F)cc(F)c2)c1C [Compound 84, N′-(3-((3,5-difluorophenyl)(methyl)amino)-5-fluoro-2-methylphenyl)-N-ethyl-N-methylformimidamide]
≥ 70%: pest or weed control at 500 ppm (Phakopsora pachyrhizi) | inhibition of growth at 300 ppm (Alternaria solani) | inhibition of growth at 300 ppm [1] | inhibition of growth at 300 ppm (Rhizoctonia solani) | inhibition of growth at 300 ppm (Botrytis cinerea)

CCN(C)C=Nc1cc(F)cc(Nc2cccc(C(F)(F)F)n2)c1C [Compound 273, N-ethyl-N′-(5-fluoro-2-methyl-3-((6-(trifluoromethyl)pyridin-2-yl)amino)phenyl)-N-methylformimidamide]
≥ 70%: pest or weed control at 500 ppm (Phakopsora pachyrhizi) | inhibition of growth at 300 ppm (Alternaria solani) | inhibition of growth at 300 ppm [1] | inhibition of growth at 300 ppm (Pyricularia oryzae) | inhibition of growth at 300 ppm (Rhizoctonia solani) | inhibition of growth at 300 ppm (Botrytis cinerea)

CCN(C)C=Nc1cc(OC)cc(Cc2cccc(C(F)(F)F)c2)c1C [Compound 296, N-ethyl-N′-(5-methoxy-2-methyl-3-(3-(trifluoromethyl)benzyl)phenyl)-N-methylformimidamide]
≥ 70%: pest or weed control at 500 ppm (Phakopsora pachyrhizi) | inhibition of growth at 300 ppm (Alternaria solani) | inhibition of growth at 300 ppm [1] | inhibition of growth at 300 ppm (Pyricularia oryzae) | inhibition of growth at 300 ppm (Rhizoctonia solani) | inhibition of growth at 300 ppm (Botrytis cinerea)

CCN(C)C=Nc1cc(Cl)cc(Nc2cccc(C(F)(F)F)n2)c1C [Compound 274, N′-(5-chloro-2-methyl-3-((6-(trifluoromethyl)pyridin-2-yl)amino)phenyl)-N-ethyl-N-methylformimidamide]
≥ 70%: pest or weed control at 500 ppm (Phakopsora pachyrhizi) | inhibition of growth at 300 ppm (Alternaria solani) | inhibition of growth at 300 ppm [1] | inhibition of growth at 300 ppm (Pyricularia oryzae) | inhibition of growth at 300 ppm (Rhizoctonia solani) | inhibition of growth at 300 ppm (Botrytis cinerea)
